Results published in patent US11225503B2, “Crystobactamides” (HELMHOLTZ-ZENTRUM FÜR INFEKTIONSFORSCHUNG GMBH, priority 2013, dated 2022).
Values after ≈ are worked out from the molar mass of the structure shown.

Tests used:
Assay type in all cases: cell-based
[1] = system: several microorganisms and cell lines; experiment: Biological evaluation, summary statements over the MIC and cytotoxicity tests
Procedure: (§1) Cells were seeded at 6×10^3 cells per well of 96-well plates (Corning CellBind®) in complete medium (180 μl) and directly treated with cystobactamides dissolved in methanol in a serial dilution. Compound were tested in duplicate for 5 d, as well as the internal solvent control. After 5 d incubation, 5 mg/ml MTT in PBS (20 μL) was added per well and it was further incubated for 2 h at 37° C.[7] The medium was then discarded and cells were washed with PBS (100 μl) before adding 2-propanol/10N HCl (250:1, v/v; 100 μl) in order to dissolve formazan granules. The absorbance at 570 nm was measured using a microplate reader (EL808, Bio-Tek Instruments Inc.).
(§2) MIC values were determined in microdilution assays. Overnight cultures were diluted in the appropriate growth medium to achieve an inoculum of 10^4-10^6 cfu/mL. Yeasts were grown in Myc medium (1% phytone peptone, 1% glucose, 50 mM HEPES, pH 7.0), S. pneumonia and E. faecalis in tryptic soy broth (TSB: 1.7% peptone casein, 0.3% peptone soymeal, 0.25% glucose, 0.5% NaCl, 0.25% K2HPO4; pH 7.3); M. smegmatis in Middlebrook 7H9 medium supplemented with 10% Middlebrook ADC enrichment and 2 ml/l glycerol). All other listed bacteria were grown in Müller-Hinton broth (0.2% beef infusion solids, 1.75% casein hydrolysate, 0.15% starch, pH 7.4). Cystobactamides and reference drugs were added directly to the cultures in sterile 96-well plates as duplicates and serial dilutions were prepared. Microorganisms were grown on a microplate shaker (750 rpm, 30-37° C., 18-48 h), except S. pneumonia, which was grown at non-shaking conditions (37° C., 5% CO2, 18 h). Growth inhibition was assessed by visual inspection and the MIC was defined as the lowest concentration of compound that inhibited visible growth.

[2] = system: E. coli WT; experiment: Susceptibility of mutant E. coli strains, MIC; conditions: Escherichia coli WT
From the text: (§3) Cystobactamides were screened using a panel of E. coli strains with typical mutations in gyrA and parC genes (Table 11).
High-level quinolone resistance often results from a combination of several target site mutations and altered efflux mechanisms. […] This, in turn, leads to overproduction of MarA and AcrAB and overexpression of the AcrAB efflux pump is associated with the MAR (multiple antibiotic resistance) phenotype.^[5]
(§4) Bacterial wildtype strains used in susceptibility assays were either part of our strain collection or purchased from the German Collection of Microorganisms and Cell Cultures (DSMZ) or from the American Type Culture Collection (ATCC). E. coli strain WT^[6] and E. coli mutants were kindly provided by Prof. Dr. P. Heisig, Pharmaceutical Biology and Microbiology, University of Hamburg.
as §2

[3] = system: E. coli strain WT-3.2 (single-step gyrA mutation); experiment: Susceptibility of mutant E. coli strains, MIC; conditions: Escherichia coli WT-3.2 [gyrA(D87G)]
From the text: as §3, §4, §2

[4] = system: E. coli strain WT-4 M2.1 (parC mutation); experiment: Susceptibility of mutant E. coli strains, MIC; conditions: Escherichia coli WT-4 M2.1 [parC(S801)]
From the text: as §3, §4, §2

[5] = system: E. coli strain MI (single-step gyrA mutation); experiment: Susceptibility of mutant E. coli strains, MIC; conditions: Escherichia coli MI [gyrA(S83L)]
From the text: as §3, §4, §2

[6] = system: E. coli strain WT-3 (combination of both gyrA mutations); conditions: Escherichia coli WT-3 [gyrA(S83L, D87G)]
From the text: as §3, §4
as §2, with “Cystobactamides and reference drugs were added directly to the cultures in sterile 96-well plates as duplicates and serial dilutions were prepared. Microorganisms were grown on a microplate shaker (750 rpm, 30-37° C., 18-48 h), except S. pneumonia, which was grown at non-shaking conditions (37° C., 5% CO2, 18 h).” left out

[7] = system: Escherichia coli MI-4 [gyrA(S83L), parC(S801)]; experiment: Susceptibility of mutant E. coli strains, MIC
From the text: as §3

[8] = system: Candida albicans DSM-1665; experiment: Susceptibility testing, MIC microdilution; conditions: Candida albicans DSM-1665
Procedure: as §4, §2

[9] = system: Enterococcus faecalis ATCC29212; experiment: Susceptibility testing, MIC microdilution
Procedure: as §4, §2

[10] = system: Escherichia coli DSM-26863 (tolC3); experiment: Susceptibility testing, MIC microdilution; conditions: Escherichia coli DSM-26863 (tolC3)
Procedure: as §4, §2

[11] = system: Klebsiella pneumoniae DSM-30104; experiment: Susceptibility testing, MIC microdilution; conditions: Klebsiella pneumoniae DSM-30104
Procedure: as §4, §2

[12] = system: Micrococcus luteus DSM-1790; experiment: Susceptibility testing, MIC microdilution; conditions: Micrococcus luteus DSM-1790
Procedure: as §4, §2

[13] = system: Staphylococcus aureus ATCC29213; experiment: Susceptibility testing, MIC microdilution
Procedure: as §4, §2

[14] = system: Acinetobacter baumannii DSM-30008; experiment: Susceptibility testing, MIC microdilution; conditions: Acinetobacter baumannii DSM-30008
Procedure: as §4, §2

[15] = system: Mycobacterium smegmatis mc^2155 ATCC700084; experiment: Susceptibility testing, MIC microdilution; conditions: Mycobacterium smegmatis mc^2155 ATCC700084
Procedure: as §4, §2

[16] = system: Pseudomonas aeruginosa ATCC27853; experiment: Susceptibility testing, MIC microdilution
Procedure: as §4, §2

[17] = system: Escherichia coli ATCC35218; experiment: Susceptibility testing, MIC microdilution
Procedure: as §4, §2

[18] = system: Chromobacterium violaceum DSM-30191; experiment: Susceptibility testing, MIC microdilution; conditions: Chromobacterium violaceum DSM-30191
Procedure: as §4, §2

[19] = system: Streptococcus pneumoniae DSM-20566; experiment: Susceptibility testing, MIC microdilution; conditions: Streptococcus pneumoniae DSM-20566
Procedure: as §4, §2

[20] = system: Escherichia coli DSM-1116; experiment: Susceptibility testing, MIC microdilution; conditions: Escherichia coli DSM-1116
Procedure: as §4, §2

[21] = system: Escherichia coli DSM-12242 (NAL^R); experiment: Susceptibility testing, MIC microdilution; conditions: Escherichia coli DSM-12242 (NAL^R)
Procedure: as §4, §2

[22] = system: Burkholderia cenocepacia DSM-16553; experiment: Susceptibility testing, MIC microdilution; conditions: Burkholderia cenocepacia DSM-16553
Procedure: as §4, §2

[23] = system: Bacillus subtilis DSM-10; experiment: Susceptibility testing, MIC microdilution; conditions: Bacillus subtilis DSM-10
Procedure: as §4, §2

[24] = system: Pichia anomala DSM-6766; experiment: Susceptibility testing, MIC microdilution; conditions: Pichia anomala DSM-6766
Procedure: as §4, §2

[25] = system: Escherichia coli ATCC25922; experiment: Susceptibility testing, MIC microdilution
Procedure: as §4, §2

[26] = system: Enterobacter aerogenes DSM-30053; experiment: Susceptibility testing, MIC microdilution; conditions: Enterobacter aerogenes DSM-30053
Procedure: as §4, §2

[27] = system: Primary HUVEC (human umbilical vein endothelial cells)
Procedure: (§5) Human HCT-116 colon carcinoma cells (CCL-247) were obtained from the American Type Culture Collection (ATCC) and Chinese hamster ovary CHO-K1 cells (ACC-110) were obtained from the German Collection of Microorganisms and Cell Cultures (DSMZ). Both cell lines were cultured under the conditions recommended by the respective depositor. Primary HUVEC (human umbilical vein endothelial cells; single donor) were purchased from PromoCell (Heidelberg, Germany) and cultured in Endothelial Cell Growth Medium (PromoCell) containing the following supplements: 2% FCS, 0.4% ECGS, 0.1 ng/ml EGF, 1 ng/ml bFGF, 90 μg/ml heparin, 1 μg/ml hydrocortisone.
as §1

[28] = system: Human HCT-116 colon carcinoma cells
Procedure: as §5, §1

[29] = system: E. coli strain WT III (marR Δ74 bp); experiment: Susceptibility of mutant E. coli strains, MIC
Procedure: as §4, §2

What does the source list for `COC(C(=O)Nc1ccc(C(=O)Nc2ccc(C(=O)Nc3ccc(C(=O)O)cc3OC(C)C)c(O)c2OC(C)C)cc1)C(NC(=O)c1ccc(NC(=O)c2ccc([N+](=O)[O-])cc2)cc1)C(=O)O` (stereo not shown) [cystobactamide B]?
inhibition of pathogenic Gram-negative strains A. baumannii and P. aeruginosa (MIC range) ([1]; A. baumannii and P. aeruginosa): low μg/ml range; average potency on Gram-positive bacteria compared with ciprofloxacin ([1]; E. faecalis, S. aureus, S. pneumonia, average MIC): exceeded that of ciprofloxacin; MIC [2]: 1.8 µg/mL; MIC [3]: 3.7 µg/mL (≈ 4.02 µM); MIC [4]: 1.8 µg/mL (≈ 1.95 µM); MIC [5]: 3.7 µg/mL (≈ 4.02 µM); MIC [6]: 7.4 µg/mL (≈ 8.04 µM); MIC [7]: 1.8 µg/mL (≈ 1.95 µM); MIC [8]: >59 µg/mL; MIC [9]: 0.23 µg/mL (≈ 0.25 µM); MIC [10]: 1.8 µg/mL (≈ 1.95 µM); MIC [11]: >59 µg/mL; MIC [12]: 0.23 µg/mL (≈ 0.25 µM); MIC [13]: 0.12 µg/mL (≈ 0.13 µM); MIC [14]: 3.7 µg/mL (≈ 4.02 µM); MIC [15]: >59 µg/mL; MIC [16]: 14.7 µg/mL (≈ 16 µM); MIC [17]: 1.8 µg/mL (≈ 1.95 µM); MIC [18]: 14.7 µg/mL (≈ 16 µM); MIC [19]: 0.46 µg/mL (≈ 0.5 µM); MIC [20]: 1.8 µg/mL (≈ 1.95 µM); MIC [21]: 3.7 µg/mL (≈ 4.02 µM); MIC [22]: >59 µg/mL; MIC [23]: 0.46 µg/mL (≈ 0.5 µM); MIC [24]: >59 µg/mL; MIC [25]: 0.9 µg/mL (≈ 0.977 µM); MIC [26]: >59 µg/mL; GI50 [27]: > 50 µM; GI50 [28]: > 50 µM; MIC, in words ([29]; E. coli WT III): in the μg/ml range; MIC ([29]; Escherichia coli WTIII [marRΔ74bp]): 3.7 µg/mL (≈ 4.02 µM)
